The target in data set [1] is T1, Candida albicans PMT-1 enzyme (Candida albicans, UniProt O74189).
T1 construct: 25 μg of Candida albicans membrane protein; endogenous in cells
In words: PMT-1 Assay. The format is biochemical. The note with it: transfer of [3H]-mannose from dolicholphosphomannose to peptide DYATAV, Candida albicans membrane protein, 60 minutes at 25° C., pH 8.0; read-out: PMT-1 Inhibition (IC50, microM). On the procedure: The assay method is based upon the transfer of a radiolabelled mannose moiety from dolicholphosphomannose onto a threonine hydroxyl residue in a short peptide, as catalysed by the Candida albicans PMT-1 enzyme. Dolicholphospho-[^3H]-mannose is synthesised enzymatically from GDP-[^3H]-mannose and purified by chloroform:methanol extraction.
100000 Dpm of the generated substrate is incubated with 400 μg phosphatidylcholine, 25 μg of peptide (DYATAV) and 25 μg of Candida albicans membrane protein in a final volume of 50 μl in 100 mM Tris/1 mM MgCl2 buffer, pH 8.0. After 60 minutes at 25° C., the reaction is stopped with 50 μl of methanol. The unreacted radiolabel is removed by the addition of 150 μl of 0.4 g/ml octadecyl-functionalised silica (C18) in methanol. The C18 material is removed by centrifugation and the activity transferred to the peptide is counted in the supernatant.

In data set [2] the test system is Candida albicans (strain SC5314). Nature of the data set: G418 Sensitivity Assay. It is filed as cell-based. The note with it: concentration giving 50% reduction in cell growth relative to culture with G418 alone, strain SC5314, overnight at 37° C., OD600 nm, 1% DMSO. As to the method:
This assay is based upon the observed increased sensitivity of the pmt1−/− Candida strain to Geneticin (G418) (6). 100 μl of a 0.1 OD600 nm culture of Candida albicans (strain SC5314) is placed into a 96 well plate in the presence or absence of varying concentrations of test compound. The compounds are initially dissolved in DMSO and added to the cultures at a final DMSO concentration of 1%. G418 is added to a final concentration of 100 [2 g/ml. In the absence of PMT1 inhibition, this concentration of G418 has no effect on the proliferation of the organism. The cultures are grown overnight at 37° C. and cell density is then estimated by an OD600 nm measurement. The effect of the test compound is calculated as the concentration that gives a 50% reduction in cell growth relative to the culture with G418 alone.

Five compounds from US7105554B2, “Benzylidene thiazolidinediones and their use as antimycotic agents” (priority 2000, dated 2006) can be followed below.

In general, melting point refers to the temperature of the solid-liquid transition. The IC50 is the concentration at which inhibition is half-maximal.

T1 sequence (O74189 whole entry): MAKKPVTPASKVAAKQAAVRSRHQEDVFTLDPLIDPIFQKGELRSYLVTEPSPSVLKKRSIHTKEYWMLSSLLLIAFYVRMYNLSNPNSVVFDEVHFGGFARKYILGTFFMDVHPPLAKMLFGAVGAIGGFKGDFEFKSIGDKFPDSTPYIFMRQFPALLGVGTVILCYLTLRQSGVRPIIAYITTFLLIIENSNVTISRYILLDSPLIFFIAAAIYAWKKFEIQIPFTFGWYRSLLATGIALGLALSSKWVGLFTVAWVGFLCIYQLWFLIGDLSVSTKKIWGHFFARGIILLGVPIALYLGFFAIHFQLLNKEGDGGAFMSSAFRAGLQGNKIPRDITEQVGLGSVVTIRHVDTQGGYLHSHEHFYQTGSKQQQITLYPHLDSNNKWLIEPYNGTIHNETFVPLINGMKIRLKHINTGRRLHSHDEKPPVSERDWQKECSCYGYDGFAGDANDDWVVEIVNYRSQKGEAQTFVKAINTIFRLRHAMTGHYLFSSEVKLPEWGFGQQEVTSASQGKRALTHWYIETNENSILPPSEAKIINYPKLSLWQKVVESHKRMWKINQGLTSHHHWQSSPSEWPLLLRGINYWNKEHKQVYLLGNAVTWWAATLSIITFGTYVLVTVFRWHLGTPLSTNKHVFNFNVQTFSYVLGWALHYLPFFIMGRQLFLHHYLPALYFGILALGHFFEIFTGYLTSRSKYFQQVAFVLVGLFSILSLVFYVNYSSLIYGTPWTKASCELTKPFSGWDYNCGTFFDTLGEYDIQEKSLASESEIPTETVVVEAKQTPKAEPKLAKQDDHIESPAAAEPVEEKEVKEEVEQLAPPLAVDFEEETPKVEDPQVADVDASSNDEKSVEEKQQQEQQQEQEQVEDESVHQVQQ
T1 sequence (Q5ADM9 whole entry, further chain): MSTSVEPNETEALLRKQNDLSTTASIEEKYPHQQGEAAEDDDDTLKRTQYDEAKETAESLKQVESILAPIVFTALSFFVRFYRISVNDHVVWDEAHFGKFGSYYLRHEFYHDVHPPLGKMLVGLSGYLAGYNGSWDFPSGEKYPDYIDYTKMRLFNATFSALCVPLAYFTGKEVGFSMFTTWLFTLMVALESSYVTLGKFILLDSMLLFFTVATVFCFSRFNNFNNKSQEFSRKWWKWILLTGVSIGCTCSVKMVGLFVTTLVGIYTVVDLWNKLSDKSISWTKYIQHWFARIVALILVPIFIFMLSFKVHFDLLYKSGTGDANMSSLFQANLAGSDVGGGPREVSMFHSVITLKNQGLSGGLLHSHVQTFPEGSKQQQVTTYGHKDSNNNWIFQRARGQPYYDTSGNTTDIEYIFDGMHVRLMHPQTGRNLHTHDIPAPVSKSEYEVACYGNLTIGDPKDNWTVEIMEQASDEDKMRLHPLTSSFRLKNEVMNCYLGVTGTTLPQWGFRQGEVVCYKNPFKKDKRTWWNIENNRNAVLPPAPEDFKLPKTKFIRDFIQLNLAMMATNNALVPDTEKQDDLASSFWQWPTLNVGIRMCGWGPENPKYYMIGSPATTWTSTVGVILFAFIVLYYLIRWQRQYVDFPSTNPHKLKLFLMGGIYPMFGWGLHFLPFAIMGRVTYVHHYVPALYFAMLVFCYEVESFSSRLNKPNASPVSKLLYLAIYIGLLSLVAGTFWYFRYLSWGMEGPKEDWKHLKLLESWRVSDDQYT

`O=C(O)CN1C(=O)/C(=C/c2ccc(OCc3ccccc3)c(OCc3ccccc3)c2)SC1=S` [Example 29, 5-[[3,4-bis(phenylmethoxy)phenyl]methylene]-4-oxo-2-thioxo-3-thiazolidineacetic acid] had a melting point of 235 to 238 °C.

`O=C(O)CN1C(=O)/C(=C/c2ccc(OCc3cccc(C(F)(F)F)c3)c(OCc3ccccc3)c2)SC1=S` [Example 39, 5-[[3-(Phenylmethoxy)-4-[(3-trifluoromethylphenyl)methoxy]phenyl]-methylene]-4-oxo-2-thioxo-3-thiazolidineacetic acid]: the IC50 in data set [1] was determined as 2 µM; in data set [2], 650 nM.

Regarding `O=C(O)CN1C(=O)/C(=C/c2ccc(OCc3ccc(OC(F)(F)F)cc3)c(OCc3ccccc3)c2)SC1=S` [Example 42, 5-[[3-(Phenylmethoxy)-4-[(4-trifluoromethoxyphenyl)methoxy]-phenyl]-methylene]-4-oxo-2-thioxo-3-thiazolidineacetic acid], the IC50 in data set [1] came out at 1 µM; in data set [2], 350 nM. The corresponding values for `O=C(O)CN1C(=O)/C(=C/c2ccc(OCc3ccc(Cl)cc3)c(OCc3ccccc3)c2)SC1=S` [Example 44, 5-[[4-[(4-Chlorophenyl)methoxy] 3-(phenylmethoxy)phenyl]-methylene]-4-oxo-2-thioxo-3-thiazolidineacetic acid] are 1 µM and 600 nM. Consider `C[C@H](COc1ccc(/C=C2\SC(=S)N(CC(=O)O)C2=O)cc1O[C@@H](c1ccccc1)C(F)(F)F)c1ccccc1` [Example 60, 5-[[3-[(S)-1-Phenyl-2,2,2-trifluoroethoxy]-4-[(S)-2-phenylpropoxy]-phenyl]methylene]-4-oxo-2-thioxo-3-thiazolidineacetic acid], for which the melting point fell in the range of 73 to 80 °C.
